From US20060281763A1, “Carboxamide inhibitors of TGFbeta” (priority 2005, published 2006)
Where two headings read alike, the source gives them in different places.

Biological target: T1, TGFβ R1 (Homo sapiens, UniProt P36897)
T1 sequence (P36897 34-503): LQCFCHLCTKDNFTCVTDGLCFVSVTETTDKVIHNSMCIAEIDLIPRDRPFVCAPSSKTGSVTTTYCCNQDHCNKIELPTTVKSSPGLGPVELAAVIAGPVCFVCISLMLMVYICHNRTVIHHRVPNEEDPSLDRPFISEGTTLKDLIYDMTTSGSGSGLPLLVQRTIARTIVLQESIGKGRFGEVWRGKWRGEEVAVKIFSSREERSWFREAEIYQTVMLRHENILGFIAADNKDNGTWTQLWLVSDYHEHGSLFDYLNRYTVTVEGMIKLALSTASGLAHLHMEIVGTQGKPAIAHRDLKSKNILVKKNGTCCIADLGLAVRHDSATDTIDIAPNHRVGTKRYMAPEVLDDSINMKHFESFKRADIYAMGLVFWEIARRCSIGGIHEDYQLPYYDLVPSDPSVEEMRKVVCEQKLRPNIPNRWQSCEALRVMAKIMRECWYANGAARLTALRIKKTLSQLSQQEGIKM
Experiment: TGFβ R1 autophosphorylation protocol (33P-ATP, phosphocellulose filter plate)
Format: biochemical
Details: 10 uM ATP, read-out: IC50 for Kinase Inhibition
How it was run: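 Incorporation of 33P from γ-33P-ATP (10 uM ATP final) into the kinase itself (170 nM) measured by phosphocellulose capture and scintillation counting. Incubation 20 min at room temperature in 20 mM MOPS pH 7 with […]; final DMSO ≤1%.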

[1] = 170 nM TGFβ R1, room temperature 20 minutes
[2] = 170 nM TGFβ R1, 20 minutes at room temperature

Compound	IC50 [1] [nM]	IC50 [2] [nM]
CC(C)c1cnc(-c2cc(Cl)ccc2F)nc1Nc1ccncc1C(=O)NCCCN1CCCC[C@H]1C(=O)N1CCCC1 [Compound 183, 4-[2-(5-Chloro-2-fluoro-phenyl)-5-isopropyl-pyrimidin-4-ylamino]-N-{3-[2-(pyrrolidine-1-carbonyl)-piperidin-1-yl]-propyl}-nicotinamide]	21	–
COc1cnc(-c2cc(Cl)ccc2F)nc1Nc1ccncc1C(=O)N[C@H]1CCNC1 [Compound 128, 4-[2-(5-Chloro-2-fluoro-phenyl)-5-methoxy-pyrimidin-4-ylamino]-N-pyrrolidin-3-yl-nicotinamide]	–	8
CC(C)c1cnc(-c2cc(Cl)ccc2F)nc1Nc1ccncc1C(=O)NC1CNC1 [Compound 111, N-Azetidin-3-yl-4-[2-(5-chloro-2-fluoro-phenyl)-5-isopropyl-pyrimidin-4-ylamino]-nicotinamide]	–	20
CONC(=O)c1cnccc1Nc1nc(-c2cc(Cl)ccc2F)ncc1OC [Compound 120, 4-[2-(5-Chloro-2-fluoro-phenyl)-5-methoxy-pyrimidin-4-ylamino]-N-methoxy-nicotinamide]	–	190
COc1cnc(-c2cc(Cl)ccc2F)nc1Nc1ccncc1C(=O)N1CCOCC1 [Compound 203, {4-[2-(5-Chloro-2-fluoro-phenyl)-5-methoxy-pyrimidin-4-ylamino]-pyridin-3-yl}-morpholin-4-yl-methanone]	176	–
COc1cnc(-c2cc(Cl)ccc2F)nc1Nc1ccncc1C(=O)NCC1CCCC[C@H]1O (stereo in doubt) [Compound 31, 4-[2-(5-Chloro-2-fluoro-phenyl)-5-methoxy-pyrimidin-4-ylamino]-N-(2-hydroxy-cyclohexylmethyl)-nicotinamide]	–	370
CC(C)c1cnc(-c2cc(Cl)ccc2F)nc1Nc1ccncc1C(=O)NC1CC1CO (centres unmarked) [Compound 172, 4-[2-(5-Chloro-2-fluoro-phenyl)-5-isopropyl-pyrimidin-4-ylamino]-N-(2-hydroxymethyl-cyclopropyl)-nicotinamide]	5	–
COc1cnc(-c2cc(Cl)ccc2F)nc1Nc1ccncc1C(=O)NCCCNCCC1O[C@H](COCc2ccccc2)[C@@H](OCc2ccccc2)[C@H](OCc2ccccc2)[C@H]1OCc1ccccc1 (some centres unmarked) [Compound 99, 4-[2-(5-Chloro-2-fluoro-phenyl)-5-methoxy-pyrimidin-4-ylamino]-N-{3-[2-(3,4,5-tris-benzyloxy-6-benzyloxymethyl-tetrahydro-pyran-2-yl)-ethylamino]-propyl}-nicotinamide]	–	610
COc1cnc(-c2cc(Cl)ccc2F)nc1Nc1ccncc1C(=O)NCCCN1CC[C@@H](O)C1 [Compound 77, 4-[2-(5-Chloro-2-fluoro-phenyl)-5-methoxy-pyrimidin-4-ylamino]-N-[3-(3-hydroxy-pyrrolidin-1-yl)-propyl]-nicotinamide]	–	40
COc1ccc(NC(=O)NCCCNC(=O)c2cnccc2Nc2nc(-c3cc(Cl)ccc3F)ncc2OC)cc1OC [Compound 67, 4-[2-(5-Chloro-2-fluoro-phenyl)-5-methoxy-pyrimidin-4-ylamino]-N-{3-[3-(3,4-dimethoxy-phenyl)-ureido]-propyl}-nicotinamide]	–	440
CC(C)OCCCNC(=O)c1cnccc1Nc1nc(-c2cc(Cl)ccc2F)ncc1C(C)C [Compound 189, 4-[2-(5-Chloro-2-fluoro-phenyl)-5-isopropyl-pyrimidin-4-ylamino]-N-(3-isopropoxy-propyl)-nicotinamide]	74	–
COc1cnc(-c2cc(Cl)ccc2F)nc1Nc1ccncc1C(=O)NCCNCCOC1O[C@@H](CO)[C@H](O)[C@@H](O)[C@@H]1O (some centres unmarked) [Compound 185]	9	–
O=C(NCCCn1ccnc1)c1cnccc1Nc1nc(-c2cc(Cl)ccc2F)ncc1C1CCCC1 [Compound 219]	44	–
CC(C)c1cnc(-c2cc(Cl)ccc2F)nc1Nc1ccncc1C(=O)NCCCN1CCC[C@H]1C(=O)N(C)C [Compound 171, 4-[2-(5-Chloro-2-fluoro-phenyl)-5-isopropyl-pyrimidin-4-ylamino]-N-[3-(2-dimethylcarbamoyl-pyrrolidin-1-yl)-propyl]-nicotinamide]	5	–
CNC(=O)[C@@H]1CCCN1CCCNC(=O)c1cnccc1Nc1nc(-c2cc(Cl)ccc2F)ncc1C(C)C [Compound 177, 4-[2-(5-Chloro-2-fluoro-phenyl)-5-isopropyl-pyrimidin-4-ylamino]-N-[3-(2-methylcarbamoyl-pyrrolidin-1-yl)-propyl]-nicotinamide]	11	–
CC(C)c1cnc(-c2cc(Cl)ccc2F)nc1Nc1ccncc1C(=O)NC1CCC[C@@H]1OCc1ccccc1 (stereo in doubt) [Compound 223, N-(2-Benzyloxy-cyclopentyl)-4-[2-(5-chloro-2-fluoro-phenyl)-5-isopropyl-pyrimidin-4-ylamino]-nicotinamide]	7140	–
COC(=O)C1CCCN1CCCNC(=O)c1cnccc1Nc1nc(-c2cc(Cl)ccc2F)ncc1OC (centres unmarked) [Compound 175, 1-[3-({4-[2-(5-Chloro-2-fluoro-phenyl)-5-methoxy-pyrimidin-4-ylamino]-pyridine-3-carbonyl}-amino)-propyl]-pyrrolidine-2-carboxylic acid methyl ester]	31	–
COc1cnc(-c2cc(Cl)ccc2F)nc1Nc1ccncc1C(=O)N1CCC[C@H](O)C1 [Compound 221, {4-[2-(5-Chloro-2-fluoro-phenyl)-5-methoxy-pyrimidin-4-ylamino]-pyridin-3-yl}-(3-hydroxy-piperidin-1-yl)-methanone]	1460	–
CC(C)c1cnc(-c2cc(Cl)ccc2F)nc1Nc1ccncc1C(=O)N1CCNCC1 [Compound 232, {4-[2-(5-Chloro-2-fluoro-phenyl)-5-isopropyl-pyrimidin-4-ylamino]-pyridin-3-yl}-piperazin-1-yl-methanone]	990	–
CC(C)c1cnc(-c2cc(Cl)ccc2F)nc1Nc1ccncc1C(=O)NCCCN1CCC[C@@H]1C(=O)N1CCCC1 [Compound 180]	5	–
COc1cnc(-c2cc(Cl)ccc2F)nc1Nc1ccncc1C(=O)NCCNCCOC1O[C@H](COC(C)=O)[C@H](OC(C)=O)[C@H](OC(C)=O)[C@H]1OC(C)=O (some centres unmarked) [Compound 157, Acetic acid 3,4,5-triacetoxy-6-{2-[2-[{4-[2-(5-chloro-2-fluoro-phenyl)-5-methoxy-pyrimidin-4-ylamino]-pyridine-3-carbonyl}amino)-ethylamino]-ethoxy}-tetrahydro-pyran-2-ylmethyl-ester]	–	25
COc1cnc(-c2cc(Cl)ccc2F)nc1Nc1ccncc1C(=O)NCCCN(CCC1O[C@H](CO)[C@@H](O)[C@H](O)[C@@H]1O)C(C)C (some centres unmarked) [Compound 153, 4-[2-(5-Chloro-2-fluoro-phenyl)-5-methoxy-pyrimidin-4-ylamino]-N-(3-{isopropyl-[2-(3,4,5-trihydroxy-6-hydroxymethyl-tetrahydro-pyran-2-yl)-ethyl]-amino}-propyl)-nicotinamide]	–	19
O=C(NCCO)c1cnccc1Nc1nc(-c2cc(Cl)ccc2F)ncc1N1CCCC1 [Compound 24, 4-[2-(5-Chloro-2-fluoro-phenyl)-5-pyrrolidin-1-yl-pyrimidin-4-ylamino]-N-(2-hydroxy-ethyl)-nicotinamide]	–	490
COc1cnc(-c2cc(Cl)ccc2F)nc1Nc1ccncc1C(=O)NCCNC(=O)CC1O[C@H](CO)[C@@H](O)[C@H](O)[C@H]1O (some centres unmarked) [Compound 147, 4-[2-(5-Chloro-2-fluoro-phenyl)-5-methoxy-pyrimidin-4-ylamino]-N-{2-[2-(3,4,5-trihydroxy-6-hydroxymethyl-tetrahydro-pyran-2-yl)-acatylamino]-ethyl}-nicotinamide]	–	125
CC(C)c1cnc(-c2cc(Cl)ccc2F)nc1Nc1ccncc1C(=O)NCCCN1C[C@H](O)C[C@H]1C(=O)N1CCCC1 [Compound 191, 4-[2-(5-Chloro-2-fluoro-phenyl)-5-isopropyl-pyrimidin-4-ylamino]-N-{3-[4-hydroxy-2-(pyrrolidine-1-carbonyl)-pyrrolidin-1-yl]-propyl}-nicotinamide]	13	–
COc1cnc(-c2cc(Cl)ccc2F)nc1Nc1ccncc1C(=O)N1CCC[C@@H](O)C1 [Compound 218, {4-[2-(5-Chloro-2-fluoro-phenyl)-5-methoxy-pyrimidin-4-ylamino]-pyridin-3-yl}-(3-hydroxy-piperidin-1-yl)-methanone]	1780	–
COc1cnc(-c2cc(Cl)ccc2F)nc1Nc1ccncc1C(=O)NCCCN1CCC[C@H]1C(N)=O [Compound 123, N-[3-(2-Carbamoyl-pyrrolidin-1-yl)-propyl]-4-[2-(5-chloro-2-fluoro-phenyl)-5-methoxy-pyrimidin-4-ylamino]-nicotinamide]	–	23
CC(C)c1cnc(-c2cc(Cl)ccc2F)nc1Nc1ccncc1C(=O)N1CC[C@H](N)C1 [Compound 209, (3-Amino-pyrrolidin-1-yl)-{4-[2-(5-chloro-2-fluoro-phenyl)-5-isopropyl-pyrimidin-4-ylamino]-pyridin-3-yl}-methanone]	68	–
COc1cnc(-c2cc(Cl)ccc2F)nc1Nc1ccncc1C(=O)NCCNC(=O)OC(C)(C)C [Compound 32, [2-({4-[2-(5-Chloro-2-fluoro-phenyl)-5-methoxy-pyrimidin-4-ylamino]-pyridine-3-carbonyl}-amino)-ethyl]-carbamic acid tert-butyl ester]	–	560
